EP1018560A1, “VECTORS FOR TREATING CANCER” (Dnavec Research Inc., priority 1997, dated 1999)
Where a name gives a salt, the structure may show the parent alone. Starred links: 1 amine or outer side, 2 acyl side, 3 side chain; linkers in the order of their positions; H or OH if unused. Positions of bridges follow the written chain, without caps; N, C: chain ends. Non-standard residues stand in square brackets, D forms with d. Residues, ends and D or L forms follow the SMILES beside them. Chains are numbered I, II in the order given. Actinocin(9to1) = Cc1c2oc3c(C)ccc(C(=O)[*:1])c3nc-2c(C(=O)[*:2])c(N)c1=O; NMeV = CN[C@H](C(=O)O)C(C)C; Sar = CNCC(=O)O

Tests used:
[1] = system: p53-Deficient Saos2 cells; assay: Cell death specific to p53-deficient cells (ganciclovir sensitivity, viable cell number); assay type: cell-based, human; conditions: combination of AxYp53RECre, AxCAYLTK, and ganciclovir; Saos2 versus U20S cells
Experimental: p53-Deficient Saos2 cells and p53-expressing U20S cells were inoculated then cultured in the presence of 50 ng/ml nocodazole (Sigma, USA) on the next day. Nocodazole was removed on the following day, and the cells were infected with AxYp53RECre at the indicated MOIs. On the day after that, the cells were further infected with AxCAYLTK at the indicated MOIs. Three days later, infected cells were placed into 96-well plates at a quantity of 2000 cells/well, and various concentrations of ganciclovir (Nippon Roche) were added thereto. Seven days later, the number of viable cells was counted using a Cell Titer 96 AQueous Non-Radioactive Cell Proliferation Assay (Promega, USA). […] In this figure, "% viable cell number" refers to the relative number of cells compared to the number of cells in the absence of ganciclovir taken as 100. Mean values of five samples are shown. Error bars show standard deviations.

U2OS cells (p53+) = assay: Potentiation of p53-dependent suppression of expression by antitumor agents (β-galactosidase activity); assay type: cell-based
Experimental: U2OS cells (p53+) that had been placed into six-well plates (6 x 10^5 cells per well) on the previous day were infected with AxYp53RECre at the indicated MOIs. Various compounds (actinomycin D, doxorubicin hydrochloride, etoposide, and nocodazole, all from Sigma, USA) were then added at the indicated concentrations. On the next day, the compounds were removed, and AxCAYLLZ was infected at the indicated MOIs. Six days later, crude extracts of infected cells were prepared and assayed for β-galactosidase activity similarly as described in 3-1). […]

SMILES: Nc1nc(O)c2ncn(COC(CO)CO)c2n1 [ganciclovir]
- cell death [1]: caused cell death specific to p53-deficient cells

SMILES: COc1cc([C@@H]2c3cc4c(cc3[C@@H](O[C@@H]3O[C@@H]5CO[C@@H](C)O[C@H]5[C@H](O)[C@H]3O)[C@H]3COC(=O)[C@H]23)OCO4)cc(OC)c1O [etoposide]
- Remaining β-galactosidase activity (U2OS cells (p53+); AxCAYLLS MOI 10, pAxYp53RECre MOI 0, 1000 ng/ml etoposide (reference)): 100%
- Remaining β-galactosidase activity (U2OS cells (p53+); AxCAYLLS MOI 10, pAxYp53RECre MOI 30, 1000 ng/ml etoposide): 0.6%

SMILES: COC(=O)Nc1nc2ccc(C(=O)c3cccs3)cc2[nH]1 [nocodazole]
- Remaining β-galactosidase activity (U2OS cells (p53+); AxCAYLLS MOI 10, pAxYp53RECre MOI 0, 50 ng/ml nocodazole (reference)): 100%
- Remaining β-galactosidase activity (U2OS cells (p53+); AxCAYLLS MOI 10, pAxYp53RECre MOI 10, 50 ng/ml nocodazole): 31%

SMILES: COc1cccc2c1C(=O)c1c(O)c3c(c(O)c1C2=O)C[C@@](O)(C(=O)CO)C[C@@H]3O[C@H]1C[C@H](N)[C@H](O)[C@H](C)O1 [doxorubicin, doxorubicin hydrochloride]
- Remaining β-galactosidase activity (U2OS cells (p53+); AxCAYLLS MOI 10, pAxYp53RECre MOI 0, 100 ng/ml doxorubicin (reference)): 100%
- Remaining β-galactosidase activity (U2OS cells (p53+); AxCAYLLS MOI 10, pAxYp53RECre MOI 30, 100 ng/ml doxorubicin): 0.5%

SMILES: Cc1c2oc3c(C)ccc(C(=O)N[C@@H]4C(=O)N[C@H](C(C)C)C(=O)N5CCC[C@H]5C(=O)N(C)CC(=O)N(C)[C@@H](C(C)C)C(=O)O[C@@H]4C)c3nc-2c(C(=O)N[C@@H]2C(=O)N[C@H](C(C)C)C(=O)N3CCC[C@H]3C(=O)N(C)CC(=O)N(C)[C@@H](C(C)C)C(=O)O[C@@H]2C)c(N)c1=O [actinomycin D] (I: T[dV]P[Sar][NMeV] / II: T[dV]P[Sar][NMeV]; ester I:1-I:C, II:1-II:C; linker I:N-II:N via Actinocin(9to1))
- Remaining β-galactosidase activity (U2OS cells (p53+); AxCAYLLS MOI 10, pAxYp53RECre MOI 0, 10 ng/ml actinomycin D (reference)): 100%
- Remaining β-galactosidase activity (U2OS cells (p53+); AxCAYLLS MOI 10, pAxYp53RECre MOI 30, 10 ng/ml actinomycin D): 2.4%
